Calls of active or inactive are those of the source. The rule behind the calls is not given here.
Tests used:
Format in all cases: functional, organism-based
Rattus norvegicus [1] = assay: Immunomodulatory activity in Sprague-Dawley rat thymus assessed as reduction in peripheral blood lymphocyte level at 30 mg/kg, po administered daily for 3 days measured after 18 hrs by CBC analysis; set-up: dose 30 mg/kg
Rattus norvegicus [2] = assay: Immunomodulatory activity in Sprague-Dawley rat spleen assessed as reduction in peripheral blood lymphocyte level at 30 mg/kg, po administered daily for 3 days measured after 18 hrs by CBC analysis; set-up: dose 30 mg/kg
Rattus norvegicus [3] = assay: Immunomodulatory activity in Sprague-Dawley rat jejunum assessed as reduction in peripheral blood lymphocyte level at 30 mg/kg, po administered daily for 3 days measured after 18 hrs by CBC analysis; set-up: dose 30 mg/kg
Rattus norvegicus [4] = assay: Immunomodulatory activity in Sprague-Dawley rat lymph node assessed as reduction in peripheral blood lymphocyte level at 30 mg/kg, po administered daily for 3 days measured after 18 hrs by CBC analysis; set-up: dose 30 mg/kg
Rattus norvegicus [5] = assay: Immunomodulatory activity in Sprague-Dawley rat heart assessed as reduction in peripheral blood lymphocyte level at 30 mg/kg, po administered daily for 3 days measured after 18 hrs by CBC analysis; set-up: dose 30 mg/kg
Rattus norvegicus [6] = assay: Immunomodulatory activity in Sprague-Dawley rat eye assessed as reduction in peripheral blood lymphocyte level at 30 mg/kg, po administered daily for 3 days measured after 18 hrs by CBC analysis; set-up: dose 30 mg/kg
Rattus norvegicus [7] = assay: Immunomodulatory activity in Sprague-Dawley rat liver assessed as reduction in peripheral blood lymphocyte level at 30 mg/kg, po administered daily for 3 days measured after 18 hrs by CBC analysis; set-up: dose 30 mg/kg
Rattus norvegicus [8] = assay: Immunomodulatory activity in Sprague-Dawley rat kidney assessed as reduction in peripheral blood lymphocyte level at 30 mg/kg, po administered daily for 3 days measured after 18 hrs by CBC analysis; set-up: dose 30 mg/kg
Rattus norvegicus [9] = assay: Immunomodulatory activity in Sprague-Dawley rat lung assessed as reduction in peripheral blood lymphocyte level at 30 mg/kg, po administered daily for 3 days measured after 18 hrs by CBC analysis; set-up: dose 30 mg/kg
Rattus norvegicus [10] = assay: Increase in S1P level Sprague-Dawley rat heart at 30 mg/kg, po administered daily for 3 days measured after 18 hrs […]; set-up: dose 30 mg/kg
Rattus norvegicus [11] = assay: Increase in S1P level in Sprague-Dawley rat eye at 30 mg/kg, po administered daily for 3 days measured after 18 hrs […]; set-up: dose 30 mg/kg
Mus musculus [12] = assay: Immunomodulatory activity in mouse assessed as induction of lymphopenia at 5 to 10 mg/kg, po administered as single dose measured after 18 hrs
Mus musculus [13] = assay: Antiarthritic activity in […] collagen-induced arthritic mouse assessed as delay in onset of collagen-induced arthritis at 100 mg/kg, po administered qd one started one day before collagen challenge; set-up: dose 100 mg/kg
Mus musculus [14] = assay: Antiarthritic activity in […] collagen-induced arthritic mouse assessed as decrease in arthritic score at 100 mg/kg, po administered qd one started one day before collagen challenge; set-up: dose 100 mg/kg
Mus musculus [15] = assay: Antiarthritic activity in […] collagen-induced arthritic mouse assessed as decrease in joint swelling at 100 mg/kg, po administered qd one started one day before collagen challenge; set-up: dose 100 mg/kg
Mus musculus [16] = assay: Antiarthritic activity in […] collagen-induced arthritic mouse assessed as increase in CD4-positive cells in thymus at 100 mg/kg, po qd administered one day before collagen challenge; set-up: dose 100 mg/kg
Mus musculus [17] = assay: Antiarthritic activity in […] collagen-induced arthritic mouse assessed as increase in CD8-positive cells in thymus at 100 mg/kg, po qd administered one day before collagen challenge; set-up: dose 100 mg/kg
Mus musculus [18] = assay: Antiarthritic activity in […] collagen-induced arthritic mouse assessed as decrease in synovial hyperplasia at 100 mg/kg, po administered qd one started one day before collagen challenge; set-up: dose 100 mg/kg
Mus musculus [19] = assay: Antiarthritic activity in […] collagen-induced arthritic mouse assessed as decrease in inflammation at 100 mg/kg, po administered qd one started one day before collagen challenge; set-up: dose 100 mg/kg
Mus musculus [20] = assay: Antiarthritic activity in […] collagen-induced arthritic mouse assessed as decrease in erosion at 100 mg/kg, po administered qd one started one day before collagen challenge; set-up: dose 100 mg/kg
Mus musculus [21] = assay: Antiarthritic activity in […] collagen-induced arthritic mouse assessed as decrease in exudate formation at 100 mg/kg, po administered qd one started one day before collagen challenge; set-up: dose 100 mg/kg
Mus musculus [22] = assay: Antiarthritic activity in […] collagen-induced arthritis in mouse assessed as decrease in joint swelling at 30 mg/kg, po administered qd on day 20 after collagen challenge by ELISA; set-up: dose 30 mg/kg
Mus musculus [23] = assay: Antiarthritic activity in […] collagen-induced arthritis in mouse assessed as decrease in clinical scores at 30 mg/kg, po administered qd on day 20 after collagen challenge by ELISA; set-up: dose 30 mg/kg
Mus musculus [24] = assay: Effect on serum anti-CII antibody levels in type 2 collagen-induced arthritis in mouse at 30 mg/kg, po administered qd on day 20 after collagen challenge by ELISA; set-up: dose 30 mg/kg
Mus musculus [25] = assay: Antiarthritic activity in […] collagen-induced arthritis in mouse assessed as decrease in joint swelling at 5 mg/kg, po administered qd on day 20 after collagen challenge by ELISA; set-up: dose 5 mg/kg
Mus musculus [26] = assay: Antiarthritic activity in […] collagen-induced arthritis in mouse assessed as decrease in clinical scores at 5 mg/kg, po administered qd on day 20 after collagen challenge by ELISA; set-up: dose 5 mg/kg

C/C(=N\O)c1ncc([C@@H](O)[C@H](O)[C@H](O)CO)[nH]1
Activity (Rattus norvegicus [1]): Active | Activity (Rattus norvegicus [2]): Active | Activity (Rattus norvegicus [3]): Active | Activity (Rattus norvegicus [4]): Active | Activity (Rattus norvegicus [5]): Active | Activity (Rattus norvegicus [6]): Active | Activity (Rattus norvegicus [7]): Active | Activity (Rattus norvegicus [8]): Active | Activity (Rattus norvegicus [9]): Active | Activity (Rattus norvegicus [10]): inactive | Activity (Rattus norvegicus [11]): inactive | Activity (Mus musculus [12]): inactive | Activity (Mus musculus [13]): Active | Activity (Mus musculus [14]): Active | Activity (Mus musculus [15]): Active | Activity (Mus musculus [16]): Active | Activity (Mus musculus [17]): Active | Activity (Mus musculus [18]): Active | Activity (Mus musculus [19]): Active | Activity (Mus musculus [20]): Active | Activity (Mus musculus [21]): Active | Activity (Mus musculus [22]): Active | Activity (Mus musculus [23]): Active | Activity (Mus musculus [24]): inactive | Activity (Mus musculus [25]): Active | Activity (Mus musculus [26]): Active
